Results: patent US8445676B2, “Pyrrolotriazine kinase inhibitors” (Bristol-Myers Squibb Company, priority 2008, dated 2013)

Target: JAK2 (Homo sapiens, UniProt O60674)
Experiment: JAK2 Tyrosine Kinase Assay
Format: biochemical
Details: list of named compounds; read-out: IC50 in the JAK2 assay
Procedure: JAK2 Tyrosine Kinase Assay
The assays were performed in V-bottom 384-well plates. […] The reaction was initiated by the combination of JAK2 with substrates and test compounds. The reaction was incubated at room temperature for 60 min. and terminated by adding 45 μl of 35 mM EDTA to each sample. The reaction mixture was analyzed on the Caliper LabChip 3000 by electrophoretic separation of the fluorescent substrate and phosphorylated product. […] Compounds were dissolved at 10 mM in dimethylsulfoxide (DMSO) and evaluated at eleven concentrations, each in duplicate. IC50 values were derived by non-linear regression analysis

JAK2, sequence (O60674 whole entry): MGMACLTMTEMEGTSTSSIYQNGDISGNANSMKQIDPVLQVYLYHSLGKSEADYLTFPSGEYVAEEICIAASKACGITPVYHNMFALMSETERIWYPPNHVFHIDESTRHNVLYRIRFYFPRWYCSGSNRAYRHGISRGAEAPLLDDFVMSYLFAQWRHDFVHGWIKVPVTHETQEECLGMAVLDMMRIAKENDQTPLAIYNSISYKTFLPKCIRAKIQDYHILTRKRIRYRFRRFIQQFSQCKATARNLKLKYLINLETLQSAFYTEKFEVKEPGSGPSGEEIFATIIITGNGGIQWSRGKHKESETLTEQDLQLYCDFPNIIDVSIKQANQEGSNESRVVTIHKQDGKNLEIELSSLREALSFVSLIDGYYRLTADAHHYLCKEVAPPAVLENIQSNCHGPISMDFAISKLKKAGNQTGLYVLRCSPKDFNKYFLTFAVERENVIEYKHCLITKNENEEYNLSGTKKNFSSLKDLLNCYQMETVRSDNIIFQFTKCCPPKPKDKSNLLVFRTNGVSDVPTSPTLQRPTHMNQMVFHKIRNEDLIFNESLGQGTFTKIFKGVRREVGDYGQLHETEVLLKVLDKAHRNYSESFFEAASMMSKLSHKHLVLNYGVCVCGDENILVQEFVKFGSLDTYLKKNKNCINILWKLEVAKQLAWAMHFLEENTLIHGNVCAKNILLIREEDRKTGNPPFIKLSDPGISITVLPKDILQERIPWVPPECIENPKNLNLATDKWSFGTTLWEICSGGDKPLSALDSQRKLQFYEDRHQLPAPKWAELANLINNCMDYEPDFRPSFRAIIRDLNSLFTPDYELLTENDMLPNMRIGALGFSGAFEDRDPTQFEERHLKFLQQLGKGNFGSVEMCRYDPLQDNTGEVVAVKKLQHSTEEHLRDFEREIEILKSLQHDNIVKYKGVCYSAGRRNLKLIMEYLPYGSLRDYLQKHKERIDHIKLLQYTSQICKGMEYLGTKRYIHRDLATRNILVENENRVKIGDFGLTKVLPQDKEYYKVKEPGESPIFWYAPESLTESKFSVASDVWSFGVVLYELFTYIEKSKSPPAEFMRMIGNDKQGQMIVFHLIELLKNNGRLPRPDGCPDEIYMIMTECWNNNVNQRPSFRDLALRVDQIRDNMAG

Compound	IC50 [nM]
Cc1cc(Nc2nc(N3CCN(C(=O)c4cccnc4Cl)CC3)nn3cccc23)n[nH]1 [2-(4-((2-chloro-3-pyridinyl)carbonyl)-1-piperazinyl)-N-(5-methyl-1H-pyrazol-3-yl)pyrrolo[2,1-f][1,2,4]triazin-4-amine]	≤ 5
Cc1cc(Nc2nc(N3CCN(C(=O)Cc4ccccc4Cl)CC3)nn3cccc23)n[nH]1 [2-(4-((2-chlorophenyl)acetyl)-1-piperazinyl)-N-(5-methyl-1H-pyrazol-3-yl)pyrrolo[2,1-f][1,2,4]triazin-4-amine]	≤ 5
CO[C@@H](C(=O)N1CCN(c2nc(Nc3cc(C)[nH]n3)c3cccn3n2)CC1)c1ccccc1 [2-(4-((2R)-2-methoxy-2-phenylacetyl)-1-piperazinyl)-N-(5-methyl-1H-pyrazol-3-yl)pyrrolo[2,1-f][1,2,4]triazin-4-amine]	≤ 5
Cc1cc(Nc2nc(N3CCN(C(=O)c4sc5ccccc5c4Cl)CC3)nn3cccc23)n[nH]1 [2-(4-((3-chloro-1-benzothiophene-2-yl)carbonyl)-1-piperazinyl)-N-(5-methyl-1H-pyrazol-3-yl)pyrrolo[2,1-f][1,2,4]triazin-4-amine]	≤ 5
Cc1cc(Nc2nc(N3CCN(C(=O)Cc4cccc(Cl)c4)CC3)nn3cccc23)n[nH]1 [2-(4-((3-chlorophenyl)acetyl)-1-piperazinyl)-N-(5-methyl-1H-pyrazol-3-yl)pyrrolo[2,1-f][1,2,4]triazin-4-amine]	≤ 5
Cc1cc(Nc2nc(N3CCN(C(=O)Cc4cccc(F)c4)CC3)nn3cccc23)n[nH]1 [2-(4-((3-fluorophenyl)acetyl)-1-piperazinyl)-N-(5-methyl-1H-pyrazol-3-yl)pyrrolo[2,1-f][1,2,4]triazin-4-amine]	≤ 5
Cc1cccc(CC(=O)N2CCN(c3nc(Nc4cc(C)[nH]n4)c4cccn4n3)CC2)c1 [2-(4-((3-methylphenyl)acetyl)-1-piperazinyl)-N-(5-methyl-1H-pyrazol-3-yl)pyrrolo[2,1-f][1,2,4]triazin-4-amine]	≤ 5
Cc1cc(Nc2nc(N3CCN(C(=O)Cc4ccc(Cl)cc4F)CC3)nn3cccc23)n[nH]1 [2-(4-((4-chloro-2-fluorophenyl)acetyl)-1-piperazinyl)-N-(5-methyl-1H-pyrazol-3-yl)pyrrolo[2,1-f][1,2,4]triazin-4-amine]	≤ 5
CCOc1cc(F)c(CC(=O)N2CCN(c3nc(Nc4cc(C)[nH]n4)c4cccn4n3)CC2)c(F)c1 [2-(4-((4-ethoxy-2,6-difluorophenyl)acetyl)-1-piperazinyl)-N-(5-methyl-1H-pyrazol-3-yl)pyrrolo[2,1-f][1,2,4]triazin-4-amine]	≤ 5
COc1ccc(CC(=O)N2CCN(c3nc(Nc4cc(C)[nH]n4)c4cccn4n3)CC2)cc1 [2-(4-((4-methoxyphenyl)acetyl)-1-piperazinyl)-N-(5-methyl-1H-pyrazol-3-yl)pyrrolo[2,1-f][1,2,4]triazin-4-amine]	≤ 5
Cc1cc(Nc2nc(N3CCN(C(=O)COCc4ccccc4)CC3)nn3cccc23)n[nH]1 [2-(4-((benzyloxy)acetyl)-1-piperazinyl)-N-(5-methyl-1H-pyrazol-3-yl)pyrrolo[2,1-f][1,2,4]triazin-4-amine]	≤ 5
Cc1cc(Nc2nc(N3CCN(C(=O)C4Cc5ccccc54)CC3)nn3cccc23)n[nH]1 (stereo not shown) [2-(4-(bicyclo[4.2.0]octa-1,3,5-trien-7-ylcarbonyl)-1-piperazinyl)-N-(5-methyl-1H-pyrazol-3-yl)pyrrolo[2,1-f][1,2,4]triazin-4-amine]	≤ 5
Cc1cc(Nc2nc(N3CCN(C(=O)CC4CCCCC4)CC3)nn3cccc23)n[nH]1 [2-(4-(cyclohexylacetyl)-1-piperazinyl)-N-(5-methyl-1H-pyrazol-3-yl)pyrrolo[2,1-f][1,2,4]triazin-4-amine]	≤ 5
Cc1cc(Nc2nc(N3CCN(C(=O)c4ccccc4C#N)CC3)nn3cccc23)n[nH]1 [2-((4-(4-((5-methyl-1H-pyrazol-3-yl)amino)pyrrolo[2,1-f][1,2,4]triazin-2-yl)-1-piperazinyl)carbonyl)benzonitrile]	≤ 5
Cc1cc(Nc2nc(N3CCN(C(=O)Cc4cccc(C#N)c4)CC3)nn3cccc23)n[nH]1 [3-(2-(4-(4-((5-methyl-1H-pyrazol-3-yl)amino)pyrrolo[2,1-f][1,2,4]triazin-2-yl)-1-piperazinyl)-2-oxoethyl)benzonitrile]	≤ 5
Cc1cc(Nc2nc(N3CCN(C(=O)C4CC(=O)c5ccccc54)CC3)nn3cccc23)n[nH]1 (stereo not shown) [3-((4-(4-((5-methyl-1H-pyrazol-3-yl)amino)pyrrolo[2,1-f][1,2,4]triazin-2-yl)-1-piperazinyl)carbonyl)-1-indanone]	≤ 5
Cc1cc(Nc2nc(N3CCN(C(=O)c4cccc(C#N)c4)CC3)nn3cccc23)n[nH]1 [3-((4-(4-((5-methyl-1H-pyrazol-3-yl)amino)pyrrolo[2,1-f][1,2,4]triazin-2-yl)-1-piperazinyl)carbonyl)benzonitrile]	≤ 5

Compound	IC50 [nM]
Cc1cc(Nc2nc(N3CCN(C(=O)[C@H](O)c4ccccc4)CC3)nn3cccc23)n[nH]1 [(1R)-2-(4-(4-((5-methyl-1H-pyrazol-3-yl)amino)pyrrolo[2,1-f][1,2,4]triazin-2-yl)-1-piperazinyl)-2-oxo-1-phenylethanol]	≤ 5
Cc1cc(Nc2nc(N3CCN(C(=O)[C@@H](O)c4ccccc4)CC3)nn3cccc23)n[nH]1 [(1S)-2-(4-(4-((5-methyl-1H-pyrazol-3-yl)amino)pyrrolo[2,1-f][1,2,4]triazin-2-yl)-1-piperazinyl)-2-oxo-1-phenylethanol]	≤ 5
Cc1cc(Nc2nc(N3CCN(C(=O)[C@H](O)CCc4ccccc4)CC3)nn3cccc23)n[nH]1 [(2R)-1-(4-(4-((5-methyl-1H-pyrazol-3-yl)amino)pyrrolo[2,1-f][1,2,4]triazin-2-yl)-1-piperazinyl)-1-oxo-4-phenyl-2-butanol]	≤ 5
Cc1cc(Nc2nc(N3CCN(C(=O)[C@](C)(O)c4ccc(F)cc4)CC3)nn3cccc23)n[nH]1 [(2R)-2-(4-fluorophenyl)-1-(4-(4-((5-methyl-1H-pyrazol-3-yl)amino)pyrrolo[2,1-f][1,2,4]triazin-2-yl)-1-piperazinyl)-1-oxo-2-propanol]	≤ 5
Cc1cc(Nc2nc(N3CCN(C(=O)[C@@H](O)Cc4ccccc4)CC3)nn3cccc23)n[nH]1 [(2S)-1-(4-(4-((5-methyl-1H-pyrazol-3-yl)amino)pyrrolo[2,1-f][1,2,4]triazin-2-yl)-1-piperazinyl)-1-oxo-3-phenyl-2-propanol]	≤ 5
CC(=O)NC(C(=O)N1CCN(c2nc(Nc3cc(C)[nH]n3)c3cccn3n2)CC1)c1ccccc1 (stereo not shown) [N-(2-(4-(4-((5-methyl-1H-pyrazol-3-yl)amino)pyrrolo[2,1-f][1,2,4]triazin-2-yl)-1-piperazinyl)-2-oxo-1-phenylethyl)acetamide]	≤ 5
CC(=O)Nc1ccccc1C(=O)N1CCN(c2nc(Nc3cc(C)[nH]n3)c3cccn3n2)CC1 [N-(2-((4-(4-((5-methyl-1H-pyrazol-3-yl)amino)pyrrolo[2,1-f][1,2,4]triazin-2-yl)-1-piperazinyl)carbonyl)phenyl)acetamide]	≤ 5
CC(=O)Nc1cccc(C(=O)N2CCN(c3nc(Nc4cc(C)[nH]n4)c4cccn4n3)CC2)c1 [N-(3-((4-(4-((5-methyl-1H-pyrazol-3-yl)amino)pyrrolo[2,1-f][1,2,4]triazin-2-yl)-1-piperazinyl)carbonyl)phenyl)acetamide]	≤ 5
CC(=O)Nc1ccc(C(=O)N2CCN(c3nc(Nc4cc(C)[nH]n4)c4cccn4n3)CC2)cc1 [N-(4-((4-(4-((5-methyl-1H-pyrazol-3-yl)amino)pyrrolo[2,1-f][1,2,4]triazin-2-yl)-1-piperazinyl)carbonyl)phenyl)acetamide]	≤ 5
Cc1cc(Nc2nc(N3CCN(C(=O)c4csnn4)CC3)nn3cccc23)n[nH]1 [N-(5-methyl-1H-pyrazol-3-yl)-2-(4-(1,2,3-thiadiazol-4-ylcarbonyl)-1-piperazinyl)pyrrolo[2,1-f][1,2,4]triazin-4-amine]	≤ 5
Cc1cc(Nc2nc(N3CCN(C(=O)c4cnon4)CC3)nn3cccc23)n[nH]1 [N-(5-methyl-1H-pyrazol-3-yl)-2-(4-(1,2,5-oxadiazol-3-ylcarbonyl)-1-piperazinyl)pyrrolo[2,1-f][1,2,4]triazin-4-amine]	≤ 5
Cc1cc(Nc2nc(N3CCN(C(=O)c4ncco4)CC3)nn3cccc23)n[nH]1 [N-(5-methyl-1H-pyrazol-3-yl)-2-(4-(1,3-oxazol-2-ylcarbonyl)-1-piperazinyl)pyrrolo[2,1-f][1,2,4]triazin-4-amine]	≤ 5
Cc1cc(Nc2nc(N3CCN(C(=O)c4cnco4)CC3)nn3cccc23)n[nH]1 [N-(5-methyl-1H-pyrazol-3-yl)-2-(4-(1,3-oxazol-5-ylcarbonyl)-1-piperazinyl)pyrrolo[2,1-f][1,2,4]triazin-4-amine]	≤ 5
Cc1cc(Nc2nc(N3CCN(C(=O)c4cc[nH]n4)CC3)nn3cccc23)n[nH]1 [N-(5-methyl-1H-pyrazol-3-yl)-2-(4-(1H-pyrazol-3-ylcarbonyl)-1-piperazinyl)pyrrolo[2,1-f][1,2,4]triazin-4-amine]	≤ 5
Cc1cc(Nc2nc(N3CCN(C(=O)c4ccccc4COc4ccccc4)CC3)nn3cccc23)n[nH]1 [N-(5-methyl-1H-pyrazol-3-yl)-2-(4-(2-(phenoxymethyl)benzoyl)-1-piperazinyl)pyrrolo[2,1-f][1,2,4]triazin-4-amine]	≤ 5
Cc1cc(Nc2nc(N3CCN(C(=O)c4ccccc4OC(F)(F)F)CC3)nn3cccc23)n[nH]1 [N-(5-methyl-1H-pyrazol-3-yl)-2-(4-(2-(trifluoromethoxy)benzoyl)-1-piperazinyl)pyrrolo[2,1-f][1,2,4]triazin-4-amine]	≤ 5
Cc1cc(Nc2nc(N3CCN(C(=O)c4ccccc4C(F)(F)F)CC3)nn3cccc23)n[nH]1 [N-(5-methyl-1H-pyrazol-3-yl)-2-(4-(2-(trifluoromethyl)benzoyl)-1-piperazinyl)pyrrolo[2,1-f][1,2,4]triazin-4-amine]	≤ 5
